According to patent US11802120B2, “Fused cyclic urea derivatives as CRHR2 antagonist” (RaQualia Pharma Inc., priority 2018, dated 2023):

Target: T1, human CRHR2-alpha (Homo sapiens, UniProt Q13324)
T1 sequence (Q13324 1-411): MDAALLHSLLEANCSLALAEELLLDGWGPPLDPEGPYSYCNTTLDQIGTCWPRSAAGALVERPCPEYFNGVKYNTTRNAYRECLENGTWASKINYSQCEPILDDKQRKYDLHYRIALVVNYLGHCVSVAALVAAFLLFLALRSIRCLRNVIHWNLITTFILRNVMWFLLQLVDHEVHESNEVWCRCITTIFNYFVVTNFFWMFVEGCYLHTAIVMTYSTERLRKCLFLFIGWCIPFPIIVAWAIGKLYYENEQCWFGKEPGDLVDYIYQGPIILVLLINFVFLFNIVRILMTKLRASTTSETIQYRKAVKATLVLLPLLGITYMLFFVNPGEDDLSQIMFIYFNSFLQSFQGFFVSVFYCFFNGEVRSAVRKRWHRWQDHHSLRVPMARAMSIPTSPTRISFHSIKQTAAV
Experiment: cAMP functional assay for human CRHR2 (LANCE Ultra cAMP, TR-FRET)
Assay type: cell-based
Conditions: CHO-K1 cells expressing human CRHR2-alpha, agonist human urocortin2 at EC80, cAMP; read-out: IC50 against CRHR2
Method in brief: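 CHO-K1 cells stably expressing each receptor, serum-starved and cryopreserved, were preincubated with compound 30 min at 25° C in HBSS buffer with 0.5 mM IBMX, pH 7.4, then stimulated 30 min with EC80 agonist (urocortin2 for CRHR2, CRF for CRHR1). cAMP read by TR-FRET; IC50 from percent-inhibition curves.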

IC50, < 300 nM:
Cc1ncc(Cl)cc1C(=O)N[C@H]1CC[C@H](Cn2c(=O)n(-c3ccc4cnccc4c3)c3ccccc32)CC1 [Example 371, 5-chloro-N-((1r,4r)-4-((3-(isoquinolin-6-yl)-2-oxo-2,3-dihydro-1H-benzo[d]imidazol-1-yl)methyl)cyclo-hexyl)-2-methylnicotinamide]
Cn1cc(-c2cccc(-n3c(=O)n(C[C@H]4CC[C@H](NC(=O)c5cc(Cl)cnc5C(F)F)CC4)c4ccccc43)c2)cn1 [Example 681, 5-chloro-2-(difluoromethyl)-N-((1r,4r)-4-((3-(3-(1-methyl-1H-pyrazol-4-yl)phenyl)-2-oxo-2,3-dihydro-1H-benzo [d]imidazol-1-yl)methyl)cyclo-hexyl)nicotinamide]
Cc1ncc(Cl)cc1C(=O)N[C@H]1CC[C@H](Cn2c(=O)n(-c3ccc(OCC(F)F)nc3)c3ccccc32)CC1 [Example 35, 5-chloro-N-((1r,4r)-4-((3-(6-(2,2-difluoroethoxy)pyridin-3-yl)-2-oxo-2,3-dihydro-1H-benzo[d]imidazol-1-yl)methyl)cyclohexyl)-2-methylnicotinamide]
Cc1cc(-n2c(=O)n(C[C@H]3CC[C@H](NC(=O)c4cc(Cl)cnc4C(F)(F)F)CC3)c3ccccc32)ccn1 [Example 316, 5-chloro-N-((1r,4r)-4-((3-(2-methylpyridin-4-yl)-2-oxo-2,3-dihydro-1H-benzo [d]imidazol-1-yl)methyl)cyclohexyl)-2-(trifluoro-methyl)nicotinamide]
O=C(N[C@H]1CC[C@H](Cn2c(=O)n(-c3ccc(Cl)cc3Cl)c3ncccc32)CC1)c1cc(Cl)cnc1C(F)F [Example 459, 5-chloro-N-((1r,4r)-4-((3-(2,4-dichlorophenyl)-2-oxo-2,3-dihydro-1H-imidazo[4,5-b]pyridin-1-yl)methyl)cyclo-hexyl)-2-(difluoromethyl) nicotinamide]
Cc1ccc(-n2c(=O)n(C[C@H]3CC[C@H](NC(=O)c4cc(Cl)cnc4C)CC3)c3ccccc32)c(C#N)c1 [Example 247, 5-chloro-N-((1r,4r)-4-((3-(2-cyano-4-methylphenyl)-2-oxo-2,3-dihydro-1H-benzo[d]imidazol-1-yl)methyl)cyclo-hexyl)-2-methylnicotinamide]
Cc1ccc(-n2c(=O)n(C[C@H]3CC[C@H](NC(=O)c4cc(Cl)cnc4C(F)(F)F)CC3)c3cccc(C)c32)cn1 [Example 302, 5-chloro-N-((1r,4r)-4-((4-methyl-3-(6-methylpyridin-3-yl)-2-oxo-2,3-dihydro-1H-benzo[d]imidazol-1-yl)methyl)cyclohexyl)-2-(trifluoromethyl)nicotinamide]
CNC(=O)c1ccc(-n2c(=O)n(C[C@H]3CC[C@H](NC(=O)c4cc(C(F)(F)F)ccc4Cl)CC3)c3ccccc32)cn1 [Example 490, 5-(3-(((1r,4r)-4-(2-chloro-5-(trifluoromethyl)benza-mido)cyclohexyl)methyl)-2-oxo-2,3-dihydro-1H-benzo[d]imidazol-1-yl)-N-methylpicolinamide]
Cc1ncc(Cl)cc1C(=O)N[C@H]1CC[C@H](Cn2c(=O)n(-c3cccc4cccnc34)c3ccccc32)CC1 [Example 337, 5-chloro-2-methyl-N-((1r,4r)-4-((2-oxo-3-(quinolin-8-yl)-2,3-dihydro-1H-benzo[d]imidazol-1-yl)methyl)cyclo-hexyl)nicotinamide]
CN(C)c1cc(-n2c(=O)n(C[C@H]3CC[C@H](NC(=O)c4cc(Cl)cnc4C(F)F)CC3)c3ccccc32)ccn1 [Example 650, 5-chloro-2-(difluoromethyl)-N-((1r,4r)-4-((3-(2-(dimethyl-amino)pyridin-4-yl)-2-oxo-2,3-dihydro-1H-benzo[d]imidazol-1-yl)methyl)cyclo-hexyl)nicotinamide]
CONC(=O)c1ccc(-n2c(=O)n(C[C@H]3CC[C@H](NC(=O)c4cc(Cl)cnc4C(F)(F)F)CC3)c3ccccc32)cn1 [Example 431, 5-(3-(((1r,4r)-4-(5-chloro-2-(trifluoromethyl)nicotinamido)cyclohexyl)methyl)-2-oxo-2,3-dihydro-1H-benzo[d]imidazol-1-yl)-N-methoxypicolinamide]
O=C(N[C@H]1CC[C@H](Cn2c(=O)n(-c3ccnc(N4CCCC4=O)c3)c3ccccc32)CC1)c1cc(Cl)cnc1C(F)F [Example 706, 5-chloro-2-(difluoromethyl)-N-((1r,4r)-4-((2-oxo-3-(2-(2-oxopyrrolidin-1-yl)pyridin-4-yl)-2,3-dihydro-1H-benzo[d]imidazol-1-yl)methyl)cyclo-hexyl)nicotinamide]
O=C(N[C@H]1CC[C@H](Cn2c(=O)n(Cc3ccccn3)c3ccccc32)CC1)c1cc(Cl)ccc1C(F)(F)F [Example 283, 5-chloro-N-((1r,4r)-4-((2-oxo-3-(pyridin-2-ylmethyl)-2,3-dihydro-1H-benzo[d]imidazol-1-yl)methyl)cyclohexyl)-2-(trifluoromethyl)benzamide]
C[C@@H](O)COc1ccc(-n2c(=O)n(C[C@H]3CC[C@H](NC(=O)c4cc(Cl)cnc4C(F)(F)F)CC3)c3ccccc32)cn1 [Example 466, 5-chloro-N-((1R,4r)-4-((3-(6-((R)-2-hydroxypropoxy)pyridin-3-yl)-2-oxo-2,3-dihydro-1H-benzo[d]imidazol-1-yl)methyl)cyclohexyl)-2-(trifluoromethyl)nicotinamide]
Cc1ncc(Cl)cc1C(=O)N[C@H]1CC[C@H](Cn2c(=O)n(-c3ccc(-c4ccnn4C)cc3)c3ccccc32)CC1 [Example 446, 5-chloro-2-methyl-N-((1r,4r)-4-((3-(4-(1-methyl-1H-pyrazol-5-yl)phenyl)-2-oxo-2,3-dihydro-1H-benzo[d]imidazol-1-yl)methyl)cyclo-hexyl)nicotinamide]
CNc1ccc(-n2c(=O)n(C[C@H]3CC[C@H](NC(=O)c4cc(Cl)cnc4C(F)F)CC3)c3ccccc32)cn1 [Example 380, 5-chloro-2-(difluoromethyl)-N-((1r,4r)-4-((3-(6-(methyl-amino)pyridin-3-yl)-2-oxo-2,3-dihydro-1H-benzo[d]imidazol-1-yl)methyl)cyclo-hexyl)nicotinamide]
CCOc1ccc(-n2c(=O)n(C[C@H]3CC[C@H](NC(=O)c4cc(Cl)cnc4C)CC3)c3ccccc32)cn1 [Example 36, 5-chloro-N-((1r,4r)-4-((3-(6-ethoxypyridin-3-yl)-2-oxo-2,3-dihydro-1H-benzo[d]imidazol-1-yl)methyl)cyclohexyl)-2-methylnicotinamide]
Cc1ccc(-n2c(=O)n(C[C@H]3CC[C@H](NC(=O)c4cc(Cl)cnc4C)CC3)c3ccccc32)cc1CO [Example 127, 5-chloro-N-((1r,4r)-4-((3-(3-(hydroxymethyl)-4-methylphenyl)-2-oxo-2,3-dihydro-1H-benzo[d]imidazol-1-yl)methyl)cyclo-hexyl)-2-methylnicotinamide]
Cc1ncc(Cl)cc1C(=O)N[C@H]1CC[C@H](Cn2c(=O)n(-c3ccc(-c4cccnc4)nc3)c3ccccc32)CC1 [Example 201, N-((1r,4r)-4-((3-([2,3′-bipyridin]-5-yl)-2-oxo-2,3-dihydro-1H-benzo[d]imidazol-1-yl)methyl)cyclohexyl)-5-chloro-2-methylnicotinamide]
Cc1ccc(-n2c(=O)n(C[C@H]3CC[C@H](NC(=O)c4cc(Cl)cnc4C)CC3)c3cccc(F)c32)cn1 [Example 121, 5-chloro-N-((1r,4r)-4-((4-fluoro-3-(6-methylpyridin-3-yl)-2-oxo-2,3-dihydro-1H-benzo[d]imidazol-1-yl)methyl)cyclo-hexyl)-2-methylnicotinamide]
COCCn1nnc2cc(-n3c(=O)n(C[C@H]4CC[C@H](NC(=O)c5cc(Cl)cnc5C)CC4)c4ccccc43)ccc21 [Example 294, 5-chloro-N-((1r,4r)-4-((3-(1-(2-methoxyethyl)-1H-benzo[d][1,2,3]triazol-5-yl)-2-oxo-2,3-dihydro-1H-benzo[d]imidazol-1-yl)methyl)cyclohexyl)-2-methylnicotinamide]
Cc1ncc(Cl)cc1C(=O)N[C@H]1CC[C@H](Cn2c(=O)n(Cc3ccccc3C#N)c3ccccc32)CC1 [Example 241, 5-chloro-N-((1r,4r)-4-((3-(2-cyanobenzyl)-2-oxo-2,3-dihydro-1H-benzo[d]imidazol-1-yl)methyl)cyclohexyl)-2-methylnicotinamide]
CNc1cnc(-n2c(=O)n(C[C@H]3CC[C@H](NC(=O)c4cc(Cl)cnc4C(F)F)CC3)c3ccccc32)cn1 [Example 391, 5-chloro-2-(difluoromethyl)-N-((1r,4r)-4-((3-(5-(methyl-amino)pyrazin-2-yl)-2-oxo-2,3-dihydro-1H-benzo[d]imidazol-1-yl)methyl)cyclohexyl) nicotinamide]
COc1ccc(-n2c(=O)n(C[C@H]3CC[C@H](NC(=O)c4cc(Cl)cnc4C)CC3)c3ccccc32)cc1OC [Example 44, 5-chloro-N-((1r,4r)-4-((3-(3,4-dimethoxyphenyl)-2-oxo-2,3-dihydro-1H-benzo[d]imidazol-1-yl)methyl)cyclohexyl)-2-methylnicotinamide]
